Reference: the SangsterLogP compilation

Assay: method code SF-GLC,AS, from DOI: 10.1021/jf60192a013, PMID: 4840568

Compound	logP
CCNP(=O)(OC)SC (configuration not stated)	0.07
CCCOP(N)(=O)SCCC (configuration not stated)	1.23
COP(=O)(NCC(C)C)SC (configuration not stated)	0.97
CCCCCCCCNP(=O)(OC)SC (configuration not stated)	1.51
COP(N)(=O)SC (configuration not stated)	-0.66
COP(=O)(NC(C)(C)C)SC (configuration not stated)	0.96
CCCCNP(=O)(OC)SC (configuration not stated)	0.94
CCCCCCNP(=O)(OC)SC (configuration not stated)	1.11
CCOP(N)(=O)SCC (configuration not stated)	0.15
CNP(=O)(OC)SC (configuration not stated)	-0.07
CCC(C)NP(=O)(OC)SC (configuration not stated)	0.95
CCCNP(=O)(OC)SC (configuration not stated)	0.65
